Measurements reported in patent US20190225643A1, “NOVEL NUCLEOSIDE ANALOGS AND USE THEREOF IN THERAPEUTIC TREATMENT” (CORNELL UNIVERSITY, priority 2016, published 2019).

What was measured:
KSHV- cell lines = experiment: CellTiter-Glo viability assay, KSHV- cell line panel; assay type: cell-based; settings: Homo sapiens, 48 h, read-out: LC50
Experimental: Cell viability assays were performed by plating log-phase cells in RPMI complete media with 20% FBS at 1*10^5 cells/mL, with concentrations of 6-ETI or phospho-6-ETI ranging from 0.1 nM to 100 μM. ATP content at 24, 48 and 72 hours post-treatment was measured by the CellTiter-Glo kit (Promega, Madison, Wis.), or by Trypan blue assay as indicated. The LC50 for 6-ETI in each cell line was determined using online EC50 software at changbioscience.com or using GraphPad Prism to determine the LC50 for 6-ETI, phospho-6-ETI and nucleoside analogs in MM cell lines and primary MM patient samples.
KSHV+ primary effusion lymphoma (PEL) cell lines (BC1, BC2, BC3, BC5, BCBL1, BCP1), EBV+ lymphoblastoid cell line LCL9001, EBI+ diffuse large B-cell lymphomas (DLBCL) with immunoblastic features (IBL1, IBL4), and EBV+ effusion DLBCL BCKN1 were cultured in RPMI-1640 medium (Invitrogen) supplemented with 50 μg/mL Gentamicin (Sigma-Aldrich) and 10% or 20% heat-inactivated fetal bovine serum, respectively. Uninfected DLBCL cell lines (Ly2, Ly7) were cultured in IMDM (Invitrogen) supplemented with 50 μg/mL Gentamicin and 10% FBS. Multiple myeloma (MM) cell lines U266 and MM1S were cultured in RPMI supplemented with 15%FBS and 50 μg/mL Gentamicin, while JJN3 was cultured in 40% IMDM/40% DMEM plus 20% FBS supplemented with 50 μg/mL Gentamicin. […]

BC3 cells = experiment: Annexin V/7-AAD cell death flow cytometry; assay type: cell-based, human; settings: 500 nM or 5 μM, 48 hours; versus IBL1
Experimental: BC3 and IBL1 cells in the exponential phase were seeded at a cell density of 0.2 million cells/ml. Cells were treated with 0.1% DMSO or with 6-ETI at a final concentration of 500 nM or 5 μM for 24, 48 or 72 hrs. Post-treatment, cells were harvested and stained with 2.54 of Alexa Fluor 647 Annexin V conjugate (Life technologies) and 2.5 fit of 7-AAD (BD biosciences) and incubated for 15 minutes in the dark at room temperature. Subsequently, 2004 of Annexin V binding buffer (BD Biosciences) was added to the cell suspension and cells analyzed by flow cytometry using BD biosciences LSRII machine.

PEL cells (BC1, BC3) = experiment: Immunoblotting of PARP cleavage, LC3B cleavage and γH2AX in PEL cells; assay type: cell-based, human
Experimental: For all intracellular signaling studies, cell lines were plated at 2*10^5 cells/mL or at indicated densities in RPMI-1640 with 20% FBS, and treated with the stated concentrations of 6-ETI, from 6 to 48 hours. Immunoblotting was performed using the following antibodies: PARP (BD Pharmingen, 556494), LC3B (Cell Signaling, 2775S), phospho-l-listone H2AX.X S139 (Cell Signaling, 2577S), GAPDH (Gene Tex, GTX100118), ADK (Santa Cruz, sc-365470) vFLIP 6/14 antibody was a gift from Mary Collins at University College of London, vCyclin (Abcam, ab12208), LANA (Advanced Biotechnologies, 13-210-100), β-Actin (Sigma A5316), p65 (Cell Signaling C22B4, p50 (Cell Signaling 3035), October-1 (Cell Signaling 4428), p-IκBα (Santa Cruz 3-9 sc-8404), IκBα (Santa Cruz C-21 sc-371), pIKKα/β (ser 176)(Santa Cruz sc-21661), IKKα (Santa Cruz H-744 sc-7218).

[1] = tested on: KSHV lytic reactivation in JSC1 PEL cell line; experiment: Lytic reactivation flow assay in rKSHV.219 infected JSC1 cells; assay type: cell-based; settings: in a small proportion of cells; 1 or 10 μM, 24 or 48 hours
Experimental: Lytic reactivation low was performed as previously described (Soulier J. et al., Blood 1995;86(4):1276-80). JSC1 B3.1 cells in the exponential phase were seeded at 2*10^5 cells/mL and treated with 1 or 10 μM 6-ETI for 24 or 48 hours, or 20 ng/mL lytic inducer TPA for 48 hours.

[2] = tested on: IBL-1 subcutaneous xenograft; experiment: Xenograft model of EBV-associated immunoblastic lymphoma; assay type: in vivo, mouse; settings: 300 mg/kg/day i.p., 5 treatments over 10 days
Experimental: The in vivo xenograft model of EBV-associated immunoblastic lymphoma was generated by injecting NOD-SCID mice (obtained from Jackson Laboratory Stock# 001303) subcutaneously on the flank region with 5*10^6IBL-1 cells in 200 μl of 50:50 matrigel/cell suspension per mouse. After forming palpable or measurable tumors, mice were randomly grouped (n=3 per group) and treated intraperitoneally with vehicle PBS-Tween80 or 6-ETI (300mg/kg/day) for 5 treatments over the course of 10 days where drug was administered three times a week. Tumor size was assessed by caliper measurement three times a week, and tumor volume (V) was calculated using the formula V=(length×Width^2)/2 where L=length or largest tumor diameter and W=width or the perpendicular tumor diameter. Relative tumor volume was determined according to the formula Vd/V0 where Vd is tumor volume on the day of measurement, and V0 represents the tumor volume on day 0 when the treatment started. At the end of the treatment course, two of the control mice were treated with vehicle PBS-Tween80 or 6-ETI (300 mg/kg) for 24 hr after which the tumors were harvested, fixed in 10% formalin and embedded in paraffin for histological examination and immunohistochemistry.

CCSc1ncnc2c1ncn2[C@@H]1O[C@H](CO)C(O)[C@@H]1O (stereo partly shown) [Compound 6-ETI, 6-ethylthioinosine]
CC50 (KSHV- cell lines): 10 to 80 µM
proportion of dead cells (Annexin V/7-AAD) (BC3 cells): higher proportion of dead cells
DNA damage marker γH2AX (PEL cells (BC1, BC3); 1 μM and 10 μM, 24 hours): appearance of γH2AX
autophagy (LC3B cleavage product) (PEL cells (BC1, BC3); 1 μM, 24 hr): some induction of autophagy
apoptosis (PARP cleavage) (PEL cells (BC1, BC3); BC1 and BC3, 1 μM, 24 hrs): small but observable increases in apoptosis
lytic reactivation [1]: induction of lytic reactivation
tumor growth [2]: reduced the rate of tumor growth
